Earlier results on 1 molecule are cited in patent publication US20070141015A1, “TOPICAL ADMINISTRATION CARRIER COMPOSITION AND THERAPEUTIC FORMULATIONS COMPRISING SAME” (priority 2005, published 2007).

Where [1] appears, read: antihypertensive use, chronic 30 mg/day.

In the case of `Nc1cc(N2CCCCC2)nc(N)[n+]1[O-]` [Minoxidil], the “1 hour peak plasma level” value (antihypertensive use, after 5 mg starting dose) is given as “Antihypertensive: 1 hour peak after 5 mg starting dose: 60 ng/mL plasma;”. Moreover, under setting [1], the steady-state peak level was 250 ng/mL and the steady-state trough level is 40 ng/mL. Moreover, the plasma level result (topical hair growth stimulant, 1 mL 2% b.i.d. dose) was “Less than 2-30 ng/ML plasma”.
